Laboratory results published in patent publication US10137081B2, “Device and method for sustained release of antipsychotic medications” (DELPOR, INC., priority 2012, dated 2018).

Legend:
[1] = for period of constant, zero-order in vitro release of risperidone: FIGS. 4, 5
Method: Singly capped devices were weighed and tared on a conventional laboratory balance. The open end of each device was fitted with a small funnel, and each salt form of drug to be tested was loaded into the reservoir in small (about 10-about 50 mg) portions. When necessary, each added portion of solid was tamped down to the base of the reservoir prior to the next addition. This process was repeated until a specific loading target was met (generally about 250-500 mg). The filled reservoir was then capped with either a closed PEEK cap or a cap configuration identical to that used on the first end of the device, vide supra.
The assembled devices were weighed and then loaded into a custom-built vacuum hydrator. The air space within each device was evacuated by placing the device in a vacuum (<0.5 torr) for no less than 30 min. The devices were then back-filled with phosphate-buffered saline (pH 7.4) applied with a back pressure of 5-10 psi above atmospheric pressure for at least one hour. The devices were then retrieved from the hydration apparatus, wiped with a tissue to absorb any external fluid, weighed, and transferred to petri dishes containing buffer for the drug output assay, vide infra. The success of the hydration step was determined by the measuring the increase in mass before and after hydration.
The dish was placed in an incubator with pCO2 adjusted to give an average buffer pH of 7.4. Approximately once per day, the dishes were retrieved from the incubator. Each device was transferred to a new dish containing an equivalent amount of buffer and then returned to the incubator.
The retained receiving buffer samples were acidified with 3.0 mL of 0.1 M HCl and allowed to stand for approximately 1 hour. An aliquot of each sample (generally 100 μL) was transferred to a single well of a UV-transparent 96 well plate along with 100 μL of 0.1 M HCl diluent. After plating, the absorbance of each well was recorded at 270 nm using a Molecular Devices spectrophotometer. The absorbances were converted into concentrations (and ultimately output mass per day) by comparison to a standard curve. Samples that absorbed outside of the linear range of the instrument were diluted and re-read, as appropriate.

[2] = general statement in the description; cited from earlier work
[3] = In vivo pharmacokinetics, device as subcutaneous implant in rats
Method: Six male Sprague Dawley rats (Charles River; Hollister, Calif.) of an initial weight of approximately 250-280 grams were administered a device as a subcutaneous implant. This study complied with all applicable sections of the Final Rules of the Animal Welfare Act regulations (9 CFR), the Public Health Service Policy on Humane Care and Use of Laboratory Animals, the Guide for the Care and Use of Laboratory Animals. […] All animals were weighed and the hair was clipped and removed from the dorsal area prior to dose administration. All animals were anesthetized with isoflurane via an induction chamber and maintained in the appropriate plane of anesthesia using isoflurane inhalant (1-3%) and a vaporizer. The dorsal area of the animal was prepared for implantation using appropriate surgical scrub and ethanol. Aseptic technique was used during implantation. A small incision was made in the skin and a single device implant gently placed in the dorsal subcutaneum using a sterile implanter tool. Following administration, the skin incision was closed with sterile suture. The animals were given an appropriate dose of analgesia (see table below) and allowed to recover.
The animals were euthanized following the blood collection.
Body weights were measured on the day of test article administration and weekly thereafter.
Blood volumes of approximately 0.8 to 1.0 mL were collected at each time point, placed into Vacutainer tubes containing EDTA, and kept on wet ice until processing. For preparation of plasma, tubes were mixed by gentle inversion several times and centrifuged under refrigeration (approximately 2-8° C.) for approximately 15 minutes at approximately 2800 rpm (˜1000×g). Plasma was split into two approximately equal aliquots and transferred to labeled screw-top tubes for storage, and stored at approximately (−60° C. to −80° C.) until shipment to the analytical lab.
Using aseptic technique, the implant site was opened up and a photo of the implant field was taken. Blood draws were made four hours and 24 hours after implant removal. Any observations were recorded.
Bioanalytical measurements of active moiety (risperidone+9-OH risperidone) were conducted by Integrated Analytical Solutions (Berkeley, Calif.) using an LCMS method validated to resolve risperidone and 9-OH risperidone in rat plasma with a lower limit of quantitation (LLQ) of 0.5 ng/mL for each analyte.
Plasma concentrations were normalized to initial body weight for each time point and plotted versus time.

[4] = subcutaneous implant, FIGS. 7, 8

Molecule: Cc1nc2n(c(=O)c1CCN1CCC(c3noc4cc(F)ccc34)CC1)CCCC2.O=C(O)c1ccccc1 [risperidone benzoate, reference compound]
- in vitro output pattern relative to the therapeutic window ([1]; FIG. 2, upper limit 2.5 mg/day): rises to high levels before falling

Molecule: Cc1nc2n(c(=O)c1CCN1CCC(c3noc4cc(F)ccc34)CC1)CCCC2 [risperidone free base, risperidone, reference compound]
- solubility in water [2]: extremely insoluble in water

Molecule: CCCCC(=O)O.Cc1nc2n(c(=O)c1CCN1CCC(c3noc4cc(F)ccc34)CC1)CCCC2 [risperidone pentanoate]
- period of constant plasma level of active moiety [3, 4]: greater than 60 days
- initial period in which in vitro output is slightly above the therapeutic window ([1]; FIG. 4, upper limit 2.5 mg/day): 2 weeks
- period of constant, zero-order in vitro release of risperidone [1]: at least 60 days

Molecule: dodecanoate
- solubility in water [2]: not appreciably more soluble than the free base form

Molecule: risperidone hexanoate
- examination of the implant site ([3]; after 118 days of subcutaneous implantation): no evidence of inflammation or other adverse tissue responses
- plasma level of active moiety following removal of the device ([3]; below LLQ, 4 h and 24 h after implant removal at day 118): < 0.5 ng/mL
- plasma level of active moiety (risperidone plus 9-OH risperidone) ([3]; subcutaneous implant, 290-300 mg salt per device, normalized to initial body weight, constant level after 4 hour burst): about 20 ng/mL
- period of constant plasma level of active moiety [3, 4]: 118 days
- period of constant plasma level of active moiety ([3]; subcutaneous implant, until device removal, FIG. 7): about 4 months
- period of in vitro release of risperidone within the therapeutic range ([1]; Example 6, devices 172, 180, 360 and 364, followed for 90-100 days, FIG. 5): ≥ 90 days
- period of in vitro release at a constant rate within the therapeutic range ([1]; Example 7, followed for 6 months, FIG. 6): 6 months
- period of constant, zero-order in vitro release of risperidone [1]: 30 to 90 days
